The first experiment deals with T1, acetylcholine muscarinic M1 receptor (Homo sapiens, UniProt P11229).
T1 construct: expressed in transfected cells; host or cells: CHOnfat cells (CHO cells with an NFAT reporter) expressing hM1, kept under Geneticin selection
T1 sequence (P11229 1-460): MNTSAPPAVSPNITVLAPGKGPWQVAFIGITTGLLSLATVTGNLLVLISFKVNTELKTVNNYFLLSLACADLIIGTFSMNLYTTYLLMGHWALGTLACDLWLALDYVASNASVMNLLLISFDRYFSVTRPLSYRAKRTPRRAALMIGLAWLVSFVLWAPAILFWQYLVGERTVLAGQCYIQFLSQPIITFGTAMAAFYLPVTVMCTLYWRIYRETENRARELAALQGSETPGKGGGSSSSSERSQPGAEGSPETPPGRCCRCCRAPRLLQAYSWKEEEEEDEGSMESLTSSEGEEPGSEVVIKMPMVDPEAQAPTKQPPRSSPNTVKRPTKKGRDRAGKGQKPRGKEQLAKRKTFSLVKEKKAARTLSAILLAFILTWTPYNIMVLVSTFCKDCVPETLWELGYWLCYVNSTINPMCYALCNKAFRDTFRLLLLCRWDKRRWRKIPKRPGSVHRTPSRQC
Kind of experiment: muscarinic FLIPR assay: intracellular calcium in CHOnfat/hM1 cells, potentiation of EC20 acetylcholine. As to conditions: M1 Pot., Table 2; CHOnfat/hM1 cells, FLIPR, EC20 acetylcholine (3 nM final). The experiment is classed as cell-based. In outline:
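CHOnfat cells stably expressing human M1, Fluo-4AM-loaded, in HBSS with 20 mM HEPES, 2.5 mM probenecid, 1% BSA. Compounds preincubated 4 min (printed "4 mM") before an EC20 acetylcholine challenge (3 nM final). FLIPR intracellular Ca²⁺ signal compared with 3 nM acetylcholine alone to detect potentiation.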
Background: A change in cytosolic calcium serves as a functional read-out for many receptors and channels.
Consider `CN(C)C(=O)Oc1cccc(N2Cc3c(cc(CN4CCC(F)(C#N)CC4)c4cccnc34)C2=O)c1` [Example 129, 3-{5-[(4-cyano-4-fluoropiperidin-1-yl)methyl]-7-oxo-7,9-dihydro-8H-pyrrolo[3,4-h]quinolin-8-yl}phenyl dimethyl carbamate], for which the EC50 was determined as 2170 nM.

Consider `C#CC1(F)CCN(Cc2cc3c(c4ncccc24)CN(c2cccc(OC(=O)N(C)C)c2)C3=O)CC1` [Example 130, 3-{5-[(4-ethynyl-4-fluoropiperidin-1-yl)methyl]-7-oxo-7,9-dihydro-8H-pyrrolo[3,4-h]quinolin-8-yl}phenyl dimethylcarbamate], for which the EC50 came out at 1430 nM.

Staying with this experiment, now noted: Table 1; CHOnfat/hM1 cells, FLIPR, EC20 acetylcholine (3 nM final); read-out: M1 Pot.
With `N#CC1(c2ccncc2)CCN(Cc2cc3c(c4ccccc24)CN([C@H]2CCCC[C@@H]2O)C3=O)CC1` [Example 58, 1-({2-[(1S,2S)-2-hydroxycyclohexyl]-3-oxo-2,3-dihydro-1H-benzo[e]isoindol-5-yl}methyl)-4-pyridin-4-ylpiperidine-4-carbonitrile], the EC50 worked out at 21 nM.

As for `CC1c2c(cc(CN3CCN(c4ccccc4)CC3)c3ccccc23)C(=O)N1[C@@H]1CCCC[C@@H]1O` (stereo partly drawn) [Example 73, 2-[(1R,2S)-2-hydroxycyclohexyl]-1-methyl-5-[(4-phenylpiperazin-1-yl)methyl]-1,2-dihydro-3H-benzo[e]isoindol-3-one], the EC50 worked out at 198 nM.

On to `Cn1cc(N2CCN(Cc3cc4c(c5ccccc35)CN(C3CCCOC3)C4=O)CC2)cn1` (stereo not shown) [Example 83, 5-{[4-(1-methyl-1H-pyrazol-4-yl)piperazin-1-yl]methyl}-2-(tetrahydro-2H-pyran-3-yl)-1,2-dihydro-3H-benzo[e]isoindol-3-one], for which the EC50 was 3870 nM.

With `O=C1c2cc(CN3CCCCC3)c3ccccc3c2CN1[C@H]1CCCC[C@@H]1O` [Example 11], the EC50 turned out to be 4900 nM.

`N#CC1(c2ccncn2)CCN(Cc2cc3c(c4ccccc24)CN([C@H]2CCCC[C@@H]2O)C3=O)CC1` [Example 51, 1-({2-[(1S,2S)-2-hydroxycyclohexyl]-3-oxo-2,3-dihydro-1H-benzo[e]isoindol-5-yl}methyl)-4-(pyrimidin-4-yl)piperidine-4-carbonitrile]: the EC50 came to 17 nM.

For the compound `O=C1c2cc(CN3CCN(c4ccccc4)CC3)c3ccccc3c2CN1[C@H]1CCCC[C@@H]1O` [Example 72, 2-[(1S,2S)-2-hydroxycyclohexyl]-5-[(4-phenylpiperazin-1-yl)methyl]-1,2-dihydro-3H-benzo[e]isoindol-3-one], the EC50 came out at 72 nM.

In the case of `C=Cc1cccc(C2(C#N)CCN(Cc3cc4c(c5ccccc35)CN([C@H]3CCCC[C@@H]3O)C4=O)CC2)n1` [Example 49, 4-(6-ethenylpyridin-2-yl)-1-({2-[(1S,2S)-2-hydroxycyclohexyl]-3-oxo-2,3-dihydro-1H-benzo[e]isoindol-5-yl}methyl)piperidine-4-carbonitrile], the EC50 came out at 114 nM.

On to `O=C1c2cc(CN3CCC(c4ccncc4)CC3)c3ccccc3c2CN1C1CCCCC1O` (stereo not shown) [Example 42, 2-(2-hydroxycyclohexyl)-5-[(4-(4-pyridinyl)piperidin-1-yl)methyl]-1,2-dihydro-3H-benzo[e]isoindol-3-one], for which the EC50 is 240 nM.

The same experiment, now with this note: Table 2; CHOnfat/hM1 cells, FLIPR, EC20 acetylcholine (3 nM final); read-out: M1 Pot.
On to `CC1(O)CCN(Cc2cc3c(c4ncccc24)CN(C2CCCCC2O)C3=O)CC1` (stereo not shown) [Example 101, 8-(2-hydroxycyclohexyl)-5-[(4-hydroxy-4-methylpiperidin-1-yl)methyl]-8,9-dihydro-7H-pyrrolo[3,4-h]quinolin-7-one], for which the EC50 was 930 nM.

Consider “1-({8-[(1S,2S)-2-hydroxycyclohexyl]-7-oxo-8,9-dihydro-7H-pyrrolo[3,4-h]quinolin-5-yl}methyl)-4-(6-methoxypyridin-2-yl)piperidine-4-carbonitrile [Example 156]”, for which the EC50 amounted to 57 nM.

Turning to `O=C1c2cc(CN3CCC4(CC3)COc3ccccc34)c3cccnc3c2CN1C1CCCCC1O` (stereo not shown) [Example 95, 8-(2-hydroxycyclohexyl)-5-(1′H-spiro[1-benzofuran-3,4′-piperidin]-1′-ylmethyl)-8,9-dihydro-7H-pyrrolo[3,4-h]quinolin-7-one], the EC50 came to 290 nM.

The values above are taken from US9206200B2, “N-linked lactam M1 receptor positive allosteric mogulators” (Merck Sharp & Dohme Corp., priority 2011, dated 2015).
